# Measurements as given in patent US5416191A, “Bradykinin antagonists” (Cortech, Inc., priority 1993, dated 1995).
# Like-named read-outs stand apart in the source and are kept apart here. Peptide text beside a SMILES is read from it.
# What was measured:
# [1] = molecular target: T1, bradykinin receptor of the B2 class (rat uterus) (Rattus norvegicus, UniProt P25023); assay: Rat uterus (RU) in vitro, antagonism of bradykinin; conditions: for RU % REC: recovery after wash
# T1 construct: concentration effect curves to bradykinin (BK) on rat uterus in vitro; from tissue; host or cells: rat uterus
# T1 sequence (P25023 1-396): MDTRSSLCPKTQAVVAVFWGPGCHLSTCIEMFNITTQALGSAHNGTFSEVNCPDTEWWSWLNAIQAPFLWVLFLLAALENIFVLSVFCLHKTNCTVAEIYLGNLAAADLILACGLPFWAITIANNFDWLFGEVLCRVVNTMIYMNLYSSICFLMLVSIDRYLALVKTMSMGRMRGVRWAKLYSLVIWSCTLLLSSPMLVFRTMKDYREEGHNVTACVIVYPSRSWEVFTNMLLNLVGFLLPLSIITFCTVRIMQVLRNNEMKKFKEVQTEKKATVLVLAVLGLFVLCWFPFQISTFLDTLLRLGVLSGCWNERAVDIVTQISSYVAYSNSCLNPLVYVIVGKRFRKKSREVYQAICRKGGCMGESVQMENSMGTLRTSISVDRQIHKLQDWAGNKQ
# Method in brief: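 Isolated rat uterus; bradykinin antagonism expressed as pA2, the negative log molar antagonist concentration that halves agonist potency. After the highest antagonist concentration, tissues were washed extensively and percent recovery was recorded.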
# [2] = molecular target: T2, bradykinin receptor of the B2 class (rabbit jugular vein) (Oryctolagus cuniculus, UniProt Q28642); assay: Rabbit jugular vein (RJV) in vitro, antagonism of bradykinin; conditions: for RJV % REC: recovery after wash
# T2 construct: from tissue; host or cells: rabbit jugular vein
# T2 sequence (Q28642 1-367): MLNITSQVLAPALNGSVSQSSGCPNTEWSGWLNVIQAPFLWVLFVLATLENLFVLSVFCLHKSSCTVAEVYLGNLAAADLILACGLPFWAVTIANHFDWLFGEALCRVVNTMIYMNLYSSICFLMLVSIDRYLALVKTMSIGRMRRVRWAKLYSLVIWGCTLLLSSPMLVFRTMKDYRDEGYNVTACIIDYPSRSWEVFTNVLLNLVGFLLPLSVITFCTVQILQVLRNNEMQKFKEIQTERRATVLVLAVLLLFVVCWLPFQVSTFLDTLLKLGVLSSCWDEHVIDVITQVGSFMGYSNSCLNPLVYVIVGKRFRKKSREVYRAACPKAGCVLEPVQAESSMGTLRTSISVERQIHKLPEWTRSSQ
# Procedure: Thus in vitro studies were performed on standard assay systems, namely, guinea-pig ileum (GPI), rat uterus (RU) and rabbit jugular vein (RJV). […] The potency of each compound was assessed as a pA2 value according to the method of Arunlakshana & Schild, Br. J. Pharmacol. Chemother., 14:48-58 (1959). The PA2 can be defined as the negative logarithm of the molar concentration of the antagonist in the presence of which the potency of the agonist is reduced two-fold, i.e. twice the amount of agonist is required to produce a given response in the presence of, than in the absence of, the antagonist. A high potency of antagonism is indicated by a high PA2 value, i.e., a low concentration of antagonist is effective.
# The percentage recovery (% Rec) was also determined for compounds with respect to each assay. Percentage recovery is a measure of the duration of action, the lower the percentage recovery value, the greater the duration of action of the compound.
# [3] = molecular target: T3, bradykinin receptor of the B2 class (guinea-pig ileum) (Cavia porcellus, UniProt O70526)
# T3 sequence (O70526 1-372): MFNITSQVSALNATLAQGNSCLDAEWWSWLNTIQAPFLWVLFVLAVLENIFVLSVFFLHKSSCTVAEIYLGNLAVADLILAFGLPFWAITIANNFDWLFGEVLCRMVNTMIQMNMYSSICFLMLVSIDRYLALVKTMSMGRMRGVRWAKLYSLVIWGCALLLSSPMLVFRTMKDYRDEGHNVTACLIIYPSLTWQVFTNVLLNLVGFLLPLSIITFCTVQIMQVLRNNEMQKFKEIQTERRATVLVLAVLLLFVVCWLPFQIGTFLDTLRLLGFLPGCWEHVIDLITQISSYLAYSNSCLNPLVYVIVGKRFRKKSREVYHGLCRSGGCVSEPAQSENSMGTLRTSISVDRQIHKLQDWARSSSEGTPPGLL
# [4] = molecular target: T3, bradykinin receptor of the B2 class (guinea-pig ileum); conditions: for GPI % REC: recovery after wash, lower = longer duration
# [5] = test system: bradykinin-induced vascular permeability; assay: Rabbit skin vascular permeability (Evans Blue, intradermal bradykinin); type: in vivo
# Procedure: In these experiments, two protocols were used. The first protocol used the classical assay in which bradykinin was injected intradermally either alone or in combination with the compound under investigation following intravenous administration of Evans Blue dye. Thirty minutes after intradermal injection of bradykinin with and without the compound, the animal was killed, its skin removed and the area of "blueing" (i.e., vascular permeability or edema) measured.
# The second protocol involved pre-injecting the test compound either 15 or 30 minutes before injecting bradykinin in the same site. The results are shown in FIGS. 2B and 2C, respectively.
# [6] = test system: bradykinin-induced hypotension; assay: Bradykinin-induced hypotension in the anesthetized rat; type: in vivo; conditions: intravenous infusion 25 μg kg^-1 min^-1; bradykinin 4×10^-9 moles; FIG. 3
# [7] = Table A, read-out: RJV pA2 (converted)
smiles,measurement,setting,value
"CC(C)C[C@H](NC(=O)[C@@H](Cc1ccccc1)NC(=O)[C@H](CSC1CC(=O)N(CCCCCCN2C(=O)CC(SC[C@H](NC(=O)[C@H](Cc3ccccc3)NC(=O)CNC(=O)[C@@H]3C[C@@H](O)CN3C(=O)[C@@H]3CCCN3C(=O)[C@H](CCCNC(=N)N)NC(=O)[C@H](N)CCCNC(=N)N)C(=O)N[C@H](Cc3ccccc3)C(=O)N[C@@H](CC(C)C)C(=O)N[C@@H](CCCNC(=N)N)C(=O)O)C2=O)C1=O)NC(=O)[C@H](Cc1ccccc1)NC(=O)CNC(=O)[C@@H]1C[C@@H](O)CN1C(=O)[C@@H]1CCCN1C(=O)[C@H](CCCNC(=N)N)NC(=O)[C@H](N)CCCNC(=N)N)C(=O)N[C@@H](CCCNC(=N)N)C(=O)O (some centres unmarked) [CP-0127] (HELM PEPTIDE1{[dR].R.P.[Hyp].G.F.C.[dF].L.R}|PEPTIDE2{[dR].R.P.[Hyp].G.F.C.[dF].L.R}|CHEM1{[O=C1CC([*:1])C(=O)N1CCCCCCN1C(=O)CC([*:2])C1=O]}$PEPTIDE1,CHEM1,7:R3-1:R1|PEPTIDE2,CHEM1,7:R3-1:R2$$$V2.0)",RU % REC,[1]; Table A,50%
same,% REC DIMER,"[1]; Table C, rat uterus",50%
same,pA2 DIMER,"[1]; Table C, rat uterus",8.8
same,% REC (40 MIN),"[1]; Table D, 40 min",50%
same,pA2 (UTERUS),"[1]; Table D, effect of linker length",8.8
same,RAT UTERUS % RECOVERED,[1]; Table E,50%
same,RAT UTERUS pA2,[1]; Table E,8.8
same,% RECOVERY,"[1]; Table F, rat uterus",50%
same,Kb,[2]; [7],0.0316 nM
same,RJV % REC,[2]; Table A,10%
same,Kb,"[3]; pA2 GUINEA PIG ILEUM, Table B, Cys position scan, monomers and BMH dimers",~20 nM
same,GPI pA2,[4]; Table A,7.7
same,GPI % REC,[4]; Table A,100%
"CC(C)C[C@H](NC(=O)[C@@H](Cc1ccccc1)NC(=O)[C@H](CO)NC(=O)[C@H](Cc1ccccc1)NC(=O)CNC(=O)[C@@H]1C[C@@H](O)CN1C(=O)[C@@H]1CCCN1C(=O)[C@H](CCCNC(=N)N)NC(=O)[C@H](N)CCCNC(=N)N)C(=O)N[C@@H](CCCNC(=N)N)C(=O)O [CP-0088, dARG^0 -Arg^1 -Pro^2 -Hyp^3 -Gly^4 -Phe^5 -Ser^6 -(d)Phe^7 -Leu^8 -Arg^9, reference compound] (HELM PEPTIDE1{[dR].R.P.[Hyp].G.F.S.[dF].L.R}$$$$V2.0)",Kb,"[1]; Table A, read-out: RU pA2 (converted)",39.8 nM
same,RU % REC,[1]; Table A,100%
same,% REC MONOMER,"[1]; Table C, rat uterus",100%
same,pA2 MONOMER,"[1]; Table C, rat uterus, P.A. = Partial Agonist",7.4
same,RAT UTERUS pA2,[1]; Table F,7.4
same,% RECOVERY,"[1]; Table F, rat uterus",100%
same,Kb,[2]; [7],3.16 nM
same,RJV % REC,[2]; Table A,90%
same,Kb,[3],251 nM
same,GPI % REC,[4]; Table A,100%
CC(C)C[C@H](NC(=O)[C@@H](Cc1ccccc1)NC(=O)[C@H](CS)NC(=O)[C@H](Cc1ccccc1)NC(=O)CNC(=O)[C@@H]1C[C@@H](O)CN1C(=O)[C@@H]1CCCN1C(=O)[C@H](CCCNC(=N)N)NC(=O)[C@H](N)CCCNC(=N)N)C(=O)N[C@@H](CCCNC(=N)N)C(=O)O [CP-0126] (HELM PEPTIDE1{[dR].R.P.[Hyp].G.F.C.[dF].L.R}$$$$V2.0),Recovery of bradykinin concentration effect curve after washing,"[1]; rat uterus, after highest antagonist concentration, FIGS. 1A/1B",almost returns to that seen in the control
same,Kb,[2],1.58 nM
same,RJV % REC,[2]; Table A,60%
same,"Inhibition of bradykinin-induced vascular permeability, co-injected","[5]; intradermal, injected in combination with bradykinin, FIG. 2A",more potent than CP-0127
same,"Inhibition of bradykinin-induced vascular permeability, pre-injected","[5]; pre-injected 15 or 30 minutes before bradykinin in the same site, FIGS. 2B/2C",significantly less effective
same,Inhibition of hypotensive response to bradykinin,[6],almost totally ineffective
same,Kb,[3],501 nM
same,Kb,"[3]; GPI pA2, Table A",398 nM
same,GPI pA2,[4],≈ 6.3
